ChEMBL document CHEMBL1909046, “DrugMatrix in vitro pharmacology data”

Tests used:
[1] = DRUGMATRIX: Sodium/nucleoside co-transporter radioligand binding (ligand: nitrobenzylthioinosine); format: cell membranes, Cavia porcellus, Dunkin-Hartley, Cerebral cortex, Membrane; details: Not Active = under 50% inhibition at 10 µM
[2] = target: T1, Alpha-2C adrenergic receptor (Homo sapiens, UniProt P18825); assay: DRUGMATRIX: Adrenergic Alpha-2C radioligand binding (ligand: [3H] MK-912); format: cell membranes, Sf9, Membrane; details: sf9
T1 sequence (P18825 whole entry): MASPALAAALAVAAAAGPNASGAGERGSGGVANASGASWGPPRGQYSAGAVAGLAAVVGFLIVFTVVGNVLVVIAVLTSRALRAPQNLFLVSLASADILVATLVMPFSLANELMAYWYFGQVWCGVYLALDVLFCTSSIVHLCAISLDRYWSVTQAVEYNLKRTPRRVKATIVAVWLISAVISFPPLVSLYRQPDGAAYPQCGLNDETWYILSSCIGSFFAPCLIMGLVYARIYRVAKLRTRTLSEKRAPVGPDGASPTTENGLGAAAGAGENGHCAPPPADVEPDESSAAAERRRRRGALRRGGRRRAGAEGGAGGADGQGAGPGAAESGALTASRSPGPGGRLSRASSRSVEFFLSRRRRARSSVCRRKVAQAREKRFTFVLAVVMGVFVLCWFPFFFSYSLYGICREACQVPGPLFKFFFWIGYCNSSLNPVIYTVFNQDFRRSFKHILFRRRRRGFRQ

Thromboxane-A synthase = target: T2, Thromboxane-A synthase (Homo sapiens, UniProt P24557); assay: biochemical; format: tissue-based, Platelet; details: platelet;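 further: enzyme inhibition assay with PGH2 supplied as substrate; in other assays of this panel Not Active means under 50% inhibition at 10 µM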
T2 sequence (P24557 whole entry): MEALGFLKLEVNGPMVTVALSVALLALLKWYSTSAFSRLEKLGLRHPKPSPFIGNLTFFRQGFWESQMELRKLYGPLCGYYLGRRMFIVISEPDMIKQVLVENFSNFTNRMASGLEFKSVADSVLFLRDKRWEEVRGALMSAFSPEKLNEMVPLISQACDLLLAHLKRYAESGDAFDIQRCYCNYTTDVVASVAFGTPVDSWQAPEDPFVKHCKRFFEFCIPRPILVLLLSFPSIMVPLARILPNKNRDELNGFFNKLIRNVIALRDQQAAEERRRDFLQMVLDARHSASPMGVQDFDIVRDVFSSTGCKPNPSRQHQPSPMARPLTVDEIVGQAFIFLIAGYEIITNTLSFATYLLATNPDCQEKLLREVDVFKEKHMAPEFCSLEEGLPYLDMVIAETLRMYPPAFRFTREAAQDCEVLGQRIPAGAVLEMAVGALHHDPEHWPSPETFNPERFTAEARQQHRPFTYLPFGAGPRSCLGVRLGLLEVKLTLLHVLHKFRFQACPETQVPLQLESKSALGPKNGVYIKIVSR

[3] = target: C-C chemokine receptor type 2 (Homo sapiens, UniProt P41597); format: cell membranes, CHO-K1, Membrane; details: cho-k1; further: in other assays of this panel Not Active means under 50% inhibition at 10 µM
Chain of C-C chemokine receptor type 2 (P41597 whole entry): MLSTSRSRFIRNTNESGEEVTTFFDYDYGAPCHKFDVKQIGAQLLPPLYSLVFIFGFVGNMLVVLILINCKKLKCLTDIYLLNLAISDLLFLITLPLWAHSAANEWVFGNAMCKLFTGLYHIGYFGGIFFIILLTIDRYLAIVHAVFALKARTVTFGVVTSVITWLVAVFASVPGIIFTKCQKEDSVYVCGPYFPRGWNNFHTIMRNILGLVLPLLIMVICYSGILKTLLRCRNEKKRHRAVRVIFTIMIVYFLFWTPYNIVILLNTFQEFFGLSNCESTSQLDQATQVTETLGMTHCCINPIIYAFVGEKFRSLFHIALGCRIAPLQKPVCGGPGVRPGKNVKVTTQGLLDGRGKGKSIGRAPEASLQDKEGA

[4] = target: C-C chemokine receptor type 5 (Homo sapiens, UniProt P51681); format: cell membranes, Membrane; details: hek293; further: in other assays of this panel Not Active means under 50% inhibition at 10 µM
Chain of C-C chemokine receptor type 5 (P51681 whole entry): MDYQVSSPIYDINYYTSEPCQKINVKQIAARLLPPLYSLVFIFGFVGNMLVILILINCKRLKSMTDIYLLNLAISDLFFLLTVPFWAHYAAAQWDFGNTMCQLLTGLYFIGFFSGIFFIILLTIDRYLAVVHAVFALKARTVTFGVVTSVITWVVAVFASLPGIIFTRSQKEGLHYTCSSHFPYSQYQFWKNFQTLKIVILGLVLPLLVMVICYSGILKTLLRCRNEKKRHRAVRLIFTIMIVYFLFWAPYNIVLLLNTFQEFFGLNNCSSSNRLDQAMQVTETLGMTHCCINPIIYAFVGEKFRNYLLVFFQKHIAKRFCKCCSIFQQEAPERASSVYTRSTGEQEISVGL

[5] = target: T3, C-X-C chemokine receptor type 2 (Homo sapiens, UniProt P25025); format: cell membranes, Membrane; details: cho-k1; further: in other assays of this panel Not Active means under 50% inhibition at 10 µM
T3 sequence (P25025 whole entry): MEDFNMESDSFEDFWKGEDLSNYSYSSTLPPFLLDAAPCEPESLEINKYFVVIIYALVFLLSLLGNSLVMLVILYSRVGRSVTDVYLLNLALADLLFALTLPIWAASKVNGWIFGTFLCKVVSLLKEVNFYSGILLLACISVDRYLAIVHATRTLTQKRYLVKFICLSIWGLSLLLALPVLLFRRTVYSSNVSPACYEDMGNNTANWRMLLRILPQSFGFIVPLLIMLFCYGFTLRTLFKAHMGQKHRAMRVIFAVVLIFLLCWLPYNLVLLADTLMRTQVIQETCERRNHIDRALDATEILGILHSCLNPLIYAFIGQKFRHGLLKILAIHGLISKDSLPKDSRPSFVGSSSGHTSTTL

[6] = target: Sodium-dependent dopamine transporter (Homo sapiens, UniProt Q01959); assay: DRUGMATRIX: Dopamine Transporter radioligand binding (ligand: [125I] RTI-55); format: cell membranes, CHO-K1, Membrane; details: cho-k1; Not Active = under 50% inhibition at 10 µM
Chain of Sodium-dependent dopamine transporter (Q01959 whole entry): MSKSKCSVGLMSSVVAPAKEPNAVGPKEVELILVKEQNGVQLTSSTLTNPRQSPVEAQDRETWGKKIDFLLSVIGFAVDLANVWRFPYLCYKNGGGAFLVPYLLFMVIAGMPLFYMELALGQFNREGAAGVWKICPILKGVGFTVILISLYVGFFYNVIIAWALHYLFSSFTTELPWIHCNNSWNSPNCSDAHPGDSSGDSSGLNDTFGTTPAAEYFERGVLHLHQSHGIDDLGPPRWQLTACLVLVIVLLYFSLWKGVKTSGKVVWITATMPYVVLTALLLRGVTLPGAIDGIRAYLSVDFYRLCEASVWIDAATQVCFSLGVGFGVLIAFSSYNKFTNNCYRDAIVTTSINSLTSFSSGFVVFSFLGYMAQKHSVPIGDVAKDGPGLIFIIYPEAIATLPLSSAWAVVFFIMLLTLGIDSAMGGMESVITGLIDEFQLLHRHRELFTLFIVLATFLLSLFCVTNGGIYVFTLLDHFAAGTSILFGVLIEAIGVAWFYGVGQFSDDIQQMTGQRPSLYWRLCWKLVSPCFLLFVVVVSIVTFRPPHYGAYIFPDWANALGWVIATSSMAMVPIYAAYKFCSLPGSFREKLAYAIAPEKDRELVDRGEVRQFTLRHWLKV

Melanocortin receptor 3 = Melanocortin receptor 3 (Homo sapiens, UniProt P41968); format: cell membranes, Membrane; details: hek293; further: in other assays of this panel Not Active means under 50% inhibition at 10 µM
Chain of Melanocortin receptor 3 (P41968 whole entry): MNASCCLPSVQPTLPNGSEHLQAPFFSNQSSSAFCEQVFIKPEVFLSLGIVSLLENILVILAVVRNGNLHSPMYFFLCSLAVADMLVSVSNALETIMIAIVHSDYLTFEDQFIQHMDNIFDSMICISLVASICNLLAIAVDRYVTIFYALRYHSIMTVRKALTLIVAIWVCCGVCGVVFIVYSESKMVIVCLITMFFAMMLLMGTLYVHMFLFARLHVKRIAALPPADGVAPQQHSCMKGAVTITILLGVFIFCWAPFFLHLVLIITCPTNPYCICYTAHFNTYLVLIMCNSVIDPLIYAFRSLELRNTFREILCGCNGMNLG

[7] = DRUGMATRIX: Platelet-Derived Growth Factor (PDGF) radioligand binding (ligand: [125I] PDGF); format: cell-based; details: nih3t3; Not Active = under 50% inhibition at 10 µM
Progesterone receptor = target: T4, Progesterone receptor (Bos taurus, UniProt Q690N0); assay: DRUGMATRIX: Progesterone radioligand binding (ligand: [3H] R-5020); format: tissue-based, Uterus; details: Not Active = under 50% inhibition at 10 µM
T4 sequence (Q690N0 whole entry): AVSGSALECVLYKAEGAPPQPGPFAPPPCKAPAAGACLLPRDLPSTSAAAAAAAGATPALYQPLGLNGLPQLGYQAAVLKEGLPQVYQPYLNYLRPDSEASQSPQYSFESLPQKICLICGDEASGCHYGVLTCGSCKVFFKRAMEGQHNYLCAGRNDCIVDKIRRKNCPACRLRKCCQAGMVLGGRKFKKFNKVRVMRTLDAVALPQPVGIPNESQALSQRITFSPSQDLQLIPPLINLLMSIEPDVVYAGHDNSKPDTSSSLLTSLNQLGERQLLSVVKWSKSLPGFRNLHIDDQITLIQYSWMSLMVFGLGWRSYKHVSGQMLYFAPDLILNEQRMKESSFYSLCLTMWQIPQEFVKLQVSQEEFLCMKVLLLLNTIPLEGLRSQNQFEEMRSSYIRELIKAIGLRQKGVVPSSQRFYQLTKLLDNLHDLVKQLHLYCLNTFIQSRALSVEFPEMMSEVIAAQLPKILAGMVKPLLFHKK

[8] = target: Mitogen-activated protein kinase 3 (Homo sapiens, UniProt P27361); assay: DRUGMATRIX: Protein Serine/Threonine Kinase, ERK1 enzyme inhibition (substrate: Myelin Basic Protein); set-up: species or system Escherichia coli; details: Not Active = under 50% inhibition at 10 µM
Chain of Mitogen-activated protein kinase 3 (P27361 whole entry): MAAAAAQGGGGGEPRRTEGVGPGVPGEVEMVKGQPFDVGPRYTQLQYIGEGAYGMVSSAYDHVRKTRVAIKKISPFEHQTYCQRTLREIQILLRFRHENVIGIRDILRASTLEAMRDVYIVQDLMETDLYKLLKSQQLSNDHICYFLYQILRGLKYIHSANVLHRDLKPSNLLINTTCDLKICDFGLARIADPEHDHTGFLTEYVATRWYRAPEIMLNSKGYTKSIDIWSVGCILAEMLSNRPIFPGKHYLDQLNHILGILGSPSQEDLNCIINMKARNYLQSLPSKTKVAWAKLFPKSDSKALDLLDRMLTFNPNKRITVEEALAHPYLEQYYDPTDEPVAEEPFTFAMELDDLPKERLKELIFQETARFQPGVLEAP

[9] = target: Mitogen-activated protein kinase 1 (Homo sapiens, UniProt P28482); assay: DRUGMATRIX: Protein Serine/Threonine Kinase, ERK2 enzyme inhibition (substrate: Myelin Basic Protein); set-up: species or system Escherichia coli; details: Not Active = under 50% inhibition at 10 µM
Chain of Mitogen-activated protein kinase 1 (P28482 whole entry): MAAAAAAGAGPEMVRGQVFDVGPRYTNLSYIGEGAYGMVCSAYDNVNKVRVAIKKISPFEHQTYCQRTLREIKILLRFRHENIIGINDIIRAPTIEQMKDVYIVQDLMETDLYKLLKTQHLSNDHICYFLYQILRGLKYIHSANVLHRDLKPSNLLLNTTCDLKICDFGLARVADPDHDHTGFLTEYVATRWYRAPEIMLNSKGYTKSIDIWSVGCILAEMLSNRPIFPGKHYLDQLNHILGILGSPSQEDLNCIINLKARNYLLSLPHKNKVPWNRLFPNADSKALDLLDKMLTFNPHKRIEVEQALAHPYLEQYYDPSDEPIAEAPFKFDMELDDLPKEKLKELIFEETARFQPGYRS

[10] = target: Mitogen-activated protein kinase 14 (Homo sapiens, UniProt Q16539); set-up: species or system Escherichia coli
Chain of Mitogen-activated protein kinase 14 (Q16539 whole entry): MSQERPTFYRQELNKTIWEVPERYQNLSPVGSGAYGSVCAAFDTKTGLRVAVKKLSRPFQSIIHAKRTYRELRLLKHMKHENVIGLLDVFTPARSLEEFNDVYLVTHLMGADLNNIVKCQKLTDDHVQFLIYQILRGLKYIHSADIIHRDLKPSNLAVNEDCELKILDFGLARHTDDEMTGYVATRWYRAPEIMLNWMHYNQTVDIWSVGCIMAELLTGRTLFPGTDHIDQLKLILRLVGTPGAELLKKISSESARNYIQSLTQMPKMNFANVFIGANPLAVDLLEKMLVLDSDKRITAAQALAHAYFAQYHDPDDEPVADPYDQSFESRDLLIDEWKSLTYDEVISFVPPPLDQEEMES

[11] = target: Receptor tyrosine-protein kinase erbB-2 (Homo sapiens, UniProt P04626); assay: biochemical; format: cell-based, Insect cells; details: insect cells
Chain of Receptor tyrosine-protein kinase erbB-2 (P04626 whole entry): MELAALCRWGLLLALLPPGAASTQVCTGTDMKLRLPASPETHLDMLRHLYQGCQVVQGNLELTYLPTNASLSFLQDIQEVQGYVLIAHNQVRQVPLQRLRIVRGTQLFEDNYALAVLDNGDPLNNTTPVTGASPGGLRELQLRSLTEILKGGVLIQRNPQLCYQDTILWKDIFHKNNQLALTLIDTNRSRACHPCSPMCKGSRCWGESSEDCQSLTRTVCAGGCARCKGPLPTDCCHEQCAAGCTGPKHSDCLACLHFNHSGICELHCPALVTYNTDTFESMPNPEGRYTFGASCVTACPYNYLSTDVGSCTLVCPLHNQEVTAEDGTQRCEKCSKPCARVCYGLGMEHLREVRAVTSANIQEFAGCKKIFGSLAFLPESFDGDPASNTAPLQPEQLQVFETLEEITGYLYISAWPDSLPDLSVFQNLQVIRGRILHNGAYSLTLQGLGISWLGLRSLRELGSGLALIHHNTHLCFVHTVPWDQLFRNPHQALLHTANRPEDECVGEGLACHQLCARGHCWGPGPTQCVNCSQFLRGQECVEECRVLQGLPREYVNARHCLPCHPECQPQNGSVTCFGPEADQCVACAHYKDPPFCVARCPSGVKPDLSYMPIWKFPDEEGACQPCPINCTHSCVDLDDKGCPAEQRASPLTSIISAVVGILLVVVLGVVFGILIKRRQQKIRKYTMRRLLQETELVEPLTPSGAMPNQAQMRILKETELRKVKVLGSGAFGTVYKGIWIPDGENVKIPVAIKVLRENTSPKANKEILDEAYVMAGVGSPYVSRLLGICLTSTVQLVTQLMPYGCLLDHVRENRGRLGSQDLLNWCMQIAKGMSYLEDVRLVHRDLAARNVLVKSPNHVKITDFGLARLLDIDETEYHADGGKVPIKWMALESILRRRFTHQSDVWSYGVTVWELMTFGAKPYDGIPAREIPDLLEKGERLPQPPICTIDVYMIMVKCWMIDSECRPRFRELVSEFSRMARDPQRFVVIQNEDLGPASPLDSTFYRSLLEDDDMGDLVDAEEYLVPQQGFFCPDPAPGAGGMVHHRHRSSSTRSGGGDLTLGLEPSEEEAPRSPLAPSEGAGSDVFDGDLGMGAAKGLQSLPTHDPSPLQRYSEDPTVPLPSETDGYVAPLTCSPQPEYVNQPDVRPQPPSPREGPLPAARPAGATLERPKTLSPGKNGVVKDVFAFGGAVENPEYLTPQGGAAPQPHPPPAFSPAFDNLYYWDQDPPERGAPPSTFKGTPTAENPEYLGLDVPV

Row | Compound | IC50 [1] | Ki [1] | IC50 [2] | IC50 (Thromboxane-A synthase) | IC50 [3] | IC50 [4] | IC50 [5] | IC50 [6] | IC50 (Melanocortin receptor 3) | IC50 [7] | Ki [7] | IC50 (Progesterone receptor) | IC50 [8] | IC50 [9] | IC50 [10] | IC50 [11] | IC50 ([1]; read-out: IC50) | Ki ([1]; read-out: Ki) | IC50 (Progesterone receptor; read-out: IC50) | Ki (Progesterone receptor; read-out: Ki)
1 | NCCCC[C@H](N[C@@H](CCc1ccccc1)C(=O)O)C(=O)N1CCC[C@H]1C(=O)O [LISINOPRIL ANHYDROUS] | Not Active | Not Active | Not Active | Not Active | Not Active | Not Active | Not Active | Not Active | Not Active | Not Active | Not Active | Not Active | Not Active | Not Active | Not Active | Not Active |  |  |  | 
2 | CC(=O)[C@H]1CC[C@H]2[C@@H]3CCC4=CC(=O)CC[C@]4(C)[C@H]3CC[C@]12C [PROGESTERONE] |  |  | Not Active | Not Active | Not Active | Not Active | Not Active | Not Active | Not Active | Not Active | Not Active |  | Not Active | Not Active | Not Active | Not Active | 19.6 µM | 6.7 µM | 0.028 µM | 0.00362 µM
3 | C[C@](N)(Cc1ccc(O)cc1)C(=O)O [METYROSINE] | Not Active | Not Active | Not Active | Not Active | Not Active | Not Active | Not Active | Not Active | Not Active | Not Active | Not Active | Not Active | Not Active | Not Active | Not Active | Not Active |  |  |  | 
4 | CC1(C)[C@H]2CC[C@]1(C)C(=O)C2 [(-)-CAMPHOR] | Not Active | Not Active | Not Active | Not Active | Not Active | Not Active | Not Active | Not Active | Not Active | Not Active | Not Active | Not Active | Not Active | Not Active | Not Active | Not Active |  |  |  | 
5 | C=CC[C@@H]1/C=C(\C)C[C@H](C)C[C@H](OC)[C@H]2O[C@@](O)(C(=O)C(=O)N3CCCC[C@H]3C(=O)O[C@H](/C(C)=C/[C@@H]3CC[C@@H](O)[C@H](OC)C3)[C@H](C)[C@@H](O)CC1=O)[C@H](C)C[C@@H]2OC [TACROLIMUS ANHYDROUS] | Not Active | Not Active | Not Active | Not Active | Not Active | Not Active | Not Active | Not Active | Not Active | Not Active | Not Active | Not Active | Not Active | Not Active | Not Active | Not Active |  |  |  | 
6 | c1ccc2[nH]c(-c3cscn3)nc2c1 [THIABENDAZOLE] | Not Active | Not Active | Not Active | Not Active | Not Active | Not Active | Not Active | Not Active | Not Active | Not Active | Not Active | Not Active | Not Active | Not Active | Not Active | Not Active |  |  |  | 
7 | Cc1cc(NS(=O)(=O)c2ccc(N)cc2)no1 [SULFAMETHOXAZOLE] | Not Active | Not Active | Not Active | Not Active | Not Active | Not Active | Not Active | Not Active | Not Active | Not Active | Not Active | Not Active | Not Active | Not Active | Not Active | Not Active |  |  |  | 
8 | COc1c(C)c2c(c(O)c1C/C=C(\C)CCC(=O)OCCN1CCOCC1)C(=O)OC2 [MYCOPHENOLATE MOFETIL] | Not Active | Not Active | Not Active | Not Active | Not Active | Not Active | Not Active | Not Active | Not Active | Not Active | Not Active | Not Active | Not Active | Not Active | Not Active | Not Active |  |  |  | 
9 | Nc1ccc(S(=O)(=O)Nc2ccnn2-c2ccccc2)cc1 [SULFAPHENAZOLE] | Not Active | Not Active | Not Active | Not Active | Not Active | Not Active | Not Active | Not Active | Not Active | Not Active | Not Active | Not Active | Not Active | Not Active | Not Active | Not Active |  |  |  | 
